From ChEMBL document CHEMBL1152951, “Tabernines A-C, beta-carbolines from the leaves of Tabernaemontana elegans” (J Nat Prod, 2009)

Columns and labels:
[1] = biological target: T1, ATP-dependent translocase ABCB1 (Homo sapiens, UniProt P08183); experiment: Reversal of human MDR1-mediated multidrug resistance in mouse L5178Y cells expressing MDR1 assessed as fluorescence activity ratio at 20 uM after 10 mins by rhodamine-123 exclusion test; format: cell-based
[2] = system: L5178Y; experiment: Antiproliferative activity against multidrug resistant mouse L5178Y cells expressing human MDR1 after 72 hrs by MTT assay; format: functional; details: read-out: ID50 (the source's name)
[3] = biological target: T1, ATP-dependent translocase ABCB1; experiment: Reversal of human MDR1-mediated multidrug resistance in mouse L5178Y cells expressing MDR1 assessed as mean fluorescence intensity of rhodamine-123 uptake at 2 uM after 10 mins by flow cytometry; format: cell-based
[4] = system: L5178Y; experiment: Antiproliferative activity against mouse L5178Y cells after 72 hrs by MTT assay; format: functional; details: read-out: ID50 (the source's name)
[5] = biological target: T1, ATP-dependent translocase ABCB1; experiment: Reversal of human MDR1-mediated multidrug resistance in mouse L5178Y cells expressing MDR1 assessed as fluorescence activity ratio at 2 uM after 10 mins by rhodamine-123 exclusion test; format: cell-based
[6] = biological target: T1, ATP-dependent translocase ABCB1; experiment: Reversal of human MDR1-mediated multidrug resistance in mouse L5178Y cells expressing MDR1 assessed as mean fluorescence intensity of rhodamine-123 uptake at 20 uM after 10 mins by flow cytometry; format: cell-based
[7] = biological target: T1, ATP-dependent translocase ABCB1; details: l5178y, 10 min, 22.2 µM
Description: Reversal of human MDR1-mediated multidrug resistance in mouse L5178Y cells expressing MDR1 assessed as mean fluorescence intensity of rhodamine-123 uptake at 22.2 uM after 10 mins by flow cytometry

T1 sequence (P08183 whole entry): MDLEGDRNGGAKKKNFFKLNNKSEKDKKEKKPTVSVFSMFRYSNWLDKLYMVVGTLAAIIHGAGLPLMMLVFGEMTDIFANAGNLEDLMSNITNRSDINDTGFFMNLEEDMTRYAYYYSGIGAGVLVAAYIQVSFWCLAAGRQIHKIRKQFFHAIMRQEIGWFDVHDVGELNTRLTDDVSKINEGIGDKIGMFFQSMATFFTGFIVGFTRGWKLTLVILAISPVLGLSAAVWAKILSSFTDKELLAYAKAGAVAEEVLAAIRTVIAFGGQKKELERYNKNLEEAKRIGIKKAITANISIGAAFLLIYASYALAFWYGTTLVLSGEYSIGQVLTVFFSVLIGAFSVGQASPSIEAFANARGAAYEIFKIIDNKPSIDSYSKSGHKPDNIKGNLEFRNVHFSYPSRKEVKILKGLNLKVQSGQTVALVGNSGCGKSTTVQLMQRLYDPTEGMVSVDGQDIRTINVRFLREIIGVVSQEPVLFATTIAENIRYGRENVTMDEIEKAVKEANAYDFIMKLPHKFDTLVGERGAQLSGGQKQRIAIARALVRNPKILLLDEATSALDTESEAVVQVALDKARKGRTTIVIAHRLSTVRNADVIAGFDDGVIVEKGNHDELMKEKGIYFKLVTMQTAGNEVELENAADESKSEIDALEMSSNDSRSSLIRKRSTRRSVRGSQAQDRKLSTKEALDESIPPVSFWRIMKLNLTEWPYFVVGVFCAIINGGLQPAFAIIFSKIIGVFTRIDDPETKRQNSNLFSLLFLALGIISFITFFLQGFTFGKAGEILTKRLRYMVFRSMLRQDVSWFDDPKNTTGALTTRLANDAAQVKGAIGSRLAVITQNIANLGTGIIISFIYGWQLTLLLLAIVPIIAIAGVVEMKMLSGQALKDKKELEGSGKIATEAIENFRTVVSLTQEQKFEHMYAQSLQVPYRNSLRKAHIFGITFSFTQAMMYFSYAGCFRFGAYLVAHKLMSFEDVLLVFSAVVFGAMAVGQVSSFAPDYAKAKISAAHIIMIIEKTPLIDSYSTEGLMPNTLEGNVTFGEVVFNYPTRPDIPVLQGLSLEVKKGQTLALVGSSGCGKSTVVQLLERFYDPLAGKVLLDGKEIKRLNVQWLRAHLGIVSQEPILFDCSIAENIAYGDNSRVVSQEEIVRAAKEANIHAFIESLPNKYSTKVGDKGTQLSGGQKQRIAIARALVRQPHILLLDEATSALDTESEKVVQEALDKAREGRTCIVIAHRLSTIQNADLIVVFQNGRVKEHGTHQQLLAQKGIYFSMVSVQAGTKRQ

With Cc1cc2c([n-]c3ccccc32)c2[n+]1C(C)NCC2 (centres undefined) [TABERNINE A] the Ratio [1] was 1.73, the IC50 [2] was 37.5 µM and the Flu intensity [3] was 7.7. It also gave an IC50 [4] of 45.9 µM, a Ratio [5] of 0.72 and a Flu intensity [6] of 18.5.
Cc1cc2c3ccccc3n3c2c(n1)CCNC3C (centres undefined) [TEBERNINE B] gave a Ratio [1] of 0.99, an IC50 [2] of 39.7 µM and an Activity [3] of 8.9. For the same compound, the IC50 [4] was 46.6 µM, the Ratio [5] was 0.78 and the Activity [6] was 10.7.
Cc1cc2c([nH]c3ccccc32)c(CCN)n1 [TEBERNINE C] gave a Ratio [1] of 1.43, an IC50 [2] of 51.5 µM and an Activity [3] of 8.4. It also gave an IC50 [4] of 70.6 µM, a Ratio [5] of 0.79 and an Activity [6] of 15.3.
Compound COc1ccc(CCN(C)CCCC(C#N)(c2ccc(OC)c(OC)c2)C(C)C)cc1OC (centres undefined) [VERAPAMIL] has a Flu intensity [7] of 98.9.
